Laboratory results from PubChem BioAssay AID720547 (The Scripps Research Institute Molecular Screening Center, 2013).
Calls of active or inactive are those of the source.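 Rule for the calls: active = compound flagged as a likely artifact in this counterscreen, with IC50 of 10 µM or lower; inactive = IC50 above 10 µM.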

Test system: HEK293 Gal4-VP16 luciferase reporter counterscreen, luminescence
Test: Gal4-VP16 luciferase reporter inhibitors, dose response, counter-screen for COUP-TFII inhibitor project, cell-based, luminescence, HEK293 (AID 720547);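 note: potency for lowering the luciferase signal driven by Gal4-VP16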

| SMILES | IC50 |
| --- | --- |
| CCCc1cc(=O)n2nc(N3CCC(C(=O)N4CCN(c5ccc(OC)cc5)CC4)CC3)sc2n1 | > 85.4 µM (inactive) |
| COc1ccc(-c2ccc3oc(-c4ccc(OC)cc4)c(C#CCO)c3c2)cc1 | > 85.4 µM (inactive) |
| Cc1ccc(S(=O)(=O)CC2CSc3nc4ccccc4n32)cc1 (stereo unspecified) | > 85.4 µM (inactive) |
| Cc1cccc2cc(-c3ccccc3)c(-c3ccccc3)c[n+]12 | > 85.4 µM (inactive) |
| COC(=O)C1=C(c2ccc(-c3ccccc3)c(F)c2)C[C@@H]2CC[C@H]1N2C(=O)N1CCCC1 | > 85.4 µM (inactive) |
| NC(=O)[C@H]1CC2(CC(c3cccc(NC(=O)COc4ccc(Cl)cc4)c3)=NO2)CN1C(=O)Cc1ccc([N+](=O)[O-])cc1 (stereo partly specified) | > 85.5 µM (inactive) |
| CC[n+]1c(C=C2C=C(C)OC(C)=C2)sc2ccccc21 | > 85.4 µM (inactive) |
| CSc1ccccc1OCc1cc(C(=O)N2CCC(c3ccncc3)CC2)no1 | > 85.4 µM (inactive) |
| Cc1cc(/C=C2\Sc3ccccc3N2C)cc(C)[n+]1CC1CCCO1 (stereo unspecified) | > 85.4 µM (inactive) |
| COc1ccccc1-c1cc2nc(-c3ccccc3)cc(N3CCN(C(=O)c4ccco4)CC3)n2n1 | 10.3 µM (inactive) |
| C=CCC1(CC=C)CCCN1C(=O)c1cc(COc2ccc(-n3cncn3)cc2)on1 | > 85.4 µM (inactive) |
| c1ccc(C(Cc2nc(-c3ccncc3)no2)c2ccccc2)cc1 | > 85.4 µM (inactive) |
| c1ccc2c(c1)CCN(c1ncnc3c1[nH]c1ccccc13)C2 | 53.8 µM (inactive) |
| Cc1c(/C(O)=C2/C(=O)C(=O)N(CCN3CCOCC3)C2c2ccco2)cnn1-c1ccccc1 (stereo unspecified) | 21.3 µM (inactive) |
| CCOc1cccc(/C=N/NC(=S)Nc2ccccc2[N+](=O)[O-])c1O | 20.4 µM (inactive) |
| CC1(C)CC(=O)C=C(c2ccc(-c3cnc4ccccc4c3)cc2)C1=O | 12.5 µM (inactive) |
| CC(C)(C)c1ccc(/C=N/Nc2ccc(C(=O)O)cc2)cc1 | > 85.4 µM (inactive) |
| Oc1ccc(-c2n[nH]c(C(F)(F)F)c2-c2ccccc2)c(O)c1 | > 85.4 µM (inactive) |
| COc1ccc(CNc2ncnc3ccccc23)cc1 | > 85.4 µM (inactive) |
| CCOc1cc(S(=O)(=O)NCc2ccncc2)ccc1Cl | > 85.4 µM (inactive) |
| Cc1nn(C)c(C)c1CN(Cc1nc(CCC(C)C)no1)C(C)C | > 85.4 µM (inactive) |

| SMILES | IC50 |
| --- | --- |
| Clc1ccc(OCCN2CCN(c3ncnc4sccc34)CC2)cc1 | > 85.5 µM (inactive) |
| CC1=CC(=Cc2sc3ccccc3[n+]2C)C=C(C)O1 | 84.1 µM (inactive) |
| Cc1cc(C(=O)NC2CCCc3c2cnn3-c2ccc(C)c(C)c2)n(C)n1 (stereo unspecified) | > 85.4 µM (inactive) |
| COc1ccc(C2=Nn3c([n+](C)c4ccccc43)SC2)cc1 | > 85.4 µM (inactive) |
| CCOC(=O)C1CCCN(S(=O)(=O)c2ccc(S(=O)(=O)N(CC)CC)cc2)C1 (stereo unspecified) | > 85.4 µM (inactive) |
| C=CC[n+]1c(-c2ccc(Cl)cc2Cl)csc1Nc1c(C)n(C)n(-c2ccccc2)c1=O | > 85.4 µM (inactive) |
| Cc1ccc(Cn2ncc3c(N4CCN(Cc5ccc(Cl)cc5)CC4)ncnc32)cc1 | > 85.4 µM (inactive) |
| Cc1ccnc(Nc2nc(-c3sc(C)nc3C)cs2)c1 | > 85.3 µM (inactive) |
| Cn1nc(C(C)(C)C)cc1C(=O)NCc1cc(F)cc2c1OCOC2 | > 85.4 µM (inactive) |
| Cc1sc2ncnc(NCCc3ccc(S(N)(=O)=O)cc3)c2c1C | > 85.4 µM (inactive) |
| O=c1[nH]c(O)c(N=Nc2ccc3c(c2)OCCO3)c(=O)[nH]1 | 40.4 µM (inactive) |
| Cn1c2ccccc2c(=O)c2cc(C#CC3(O)CCCCC3)ccc21 | > 85.4 µM (inactive) |
| COc1ccc(NS(=O)(=O)c2cccc(NC(=O)c3ccc(Cl)nc3)c2)cc1 | 73.5 µM (inactive) |
| O=C(CSc1nnc(Cn2nnc3ccccc32)o1)N(Cc1ccc(Cl)cc1)c1ccccc1 | > 85.4 µM (inactive) |
| C[C@@H]1C[C@@H]([C@H](O)CC2CC(=O)NC(=O)C2)C(=O)[C@@H](C)C1 | > 85.4 µM (inactive) |
| C=CCC1(CC=C)CCCN1C(=O)c1cc(COc2ccc(C)nc2)on1 | > 85.4 µM (inactive) |
| OC[C@@H]1CN(Cc2ccc(-c3ccccc3)cc2)C[C@H](n2cnc3c(NC4CCC4)ncnc32)O1 | 64.1 µM (inactive) |
| Cc1ccc(-c2csc(NC(=O)C3CCN(S(=O)(=O)c4cccs4)CC3)n2)cc1 | > 85.4 µM (inactive) |
| Cc1sc(NC(=O)CN2CCOCC2)nc1-c1ccc2c(c1)CCN2S(=O)(=O)c1ccccc1 | > 85.4 µM (inactive) |
| Fc1ccc(NC(=S)N2CCCN(c3ccc(C(F)(F)F)cn3)CC2)c(F)c1 | > 85.4 µM (inactive) |
| O=c1c2ccccc2oc2cc(C#CC3(O)CCCCC3)ccc12 | 56.2 µM (inactive) |

| SMILES | IC50 |
| --- | --- |
| CC(=O)c1c(C)[nH]c(C(=O)OCC(=O)Nc2ccc(Cl)cc2[N+](=O)[O-])c1C | > 85.4 µM (inactive) |
| CCc1cc(C(=O)NC2CCCc3c2cnn3-c2cccc(C)c2C)n(C)n1 (stereo unspecified) | > 85.4 µM (inactive) |
| Cc1cccc(Nc2nc(NCc3ccco3)c3ccccc3n2)c1 | 53 µM (inactive) |
| Cc1nc2ccccc2n1Cc1ccc(Cl)cc1 | > 85.4 µM (inactive) |
| Cc1c(C)n(Cc2ccccc2)c2ncnc(Cl)c12 | > 85.4 µM (inactive) |
| CCNc1nc(-c2sc(NC(=O)C(C)(C)C)nc2C)c(-n2cc(-c3ccccc3)nn2)s1 | 21.1 µM (inactive) |
| CC(=O)c1ccc(N2CCN(C(=S)Nc3ccc(Oc4ccccc4)cc3)CC2)cc1 | > 85.4 µM (inactive) |
| CCN(CC)S(=O)(=O)c1cccc(NC(=O)COC(=O)c2[nH]c(C)c(C(C)=O)c2C)c1 | > 28.5 µM (inactive) |
| Cc1ccc(-n2nc3c(=O)n(C(C)C(=O)NCCCc4ccccc4)nc(C)c3c2C)cc1 (stereo unspecified) | > 85.4 µM (inactive) |
| CCCCn1c2c(c(=N)c3c1CCC3)CCC2 | > 85.4 µM (inactive) |
| Oc1ccc(CCNc2ncnc3ccc(Cl)cc23)cc1 | > 85.4 µM (inactive) |
| Cc1ccc(-c2cc3cccc[n+]3cc2-c2ccc(C)cc2)cc1 | > 28.5 µM (inactive) |
| COc1ccc(C(=O)Nc2ccccc2C(=O)N/N=C/c2ccc(O)c(OC)c2)cc1 | > 28.5 µM (inactive) |
| CCN1/C(=C\c2ccc3ccccc3[n+]2CC)Sc2cc(C)ccc21 | 53.9 µM (inactive) |
| NC(=S)NN=C1c2cc(OCCN3CCOCC3)ccc2-c2ccc(OCCN3CCOCC3)cc21 | 12 µM (inactive) |
| Fc1ccc(-n2nnnc2-c2cnc(-c3cccs3)nc2C(F)(F)F)cc1 | 33.4 µM (inactive) |
| O=C(/C=C/c1ccc([N+](=O)[O-])cc1)c1ccccc(=O)c1O | 13.2 µM (inactive) |
| Cc1ccc(Cl)cc1S(=O)(=O)N1CCC(C(=O)NC2CCN(Cc3ccccc3)CC2)CC1 | > 85.4 µM (inactive) |
| COc1ccc(N2CCN(c3ncnc4c3[nH]c3ccccc34)CC2)cc1 | > 85.4 µM (inactive) |
